We go through two compounds from ChEMBL document CHEMBL1269002, “A protecting group-free synthesis of deazathiamine: a step toward inhibitor design” (Bioorg Med Chem Lett, 2010).

Experiment [1] in a line: Competitive inhibition of Mycobacterium tuberculosis 2-hydroxy-3-oxoadipate synthase-catalyzed reduction of ferricyanide.
The nature of experiment [2]: Inhibition of Mycobacterium tuberculosis 2-hydroxy-3-oxoadipate synthase-catalyzed reduction of ferricyanide.

The compound `Cc1ncc(Cc2csc(CCOP(=O)(O)OP(=O)(O)O)c2C)c(N)n1` gave a Ki in experiment [1] of 3.5 µM. The 50% inhibitory concentration (IC50) in experiment [2] turned out to be 6.7 µM.

On to `Cc1ncc(Cc2csc(CCO)c2C)c(N)n1` [3-DEAZATHIAMINE], for which the Ki in experiment [1] stood at 76 µM. In experiment [2], this compound displayed an IC50 of 144 µM.

For orientation: Ki means the dissociation constant of the complex between target and ligand, obtained from inhibition or displacement. Low readings indicate higher affinity, high ones lower affinity. The term IC50 denotes the concentration that inhibits the measured activity by half. Lower therefore signals inhibition by little substance.
